Measurements taken from ChEMBL document CHEMBL5291721, “A preclinical secondary pharmacology resource illuminates target-adverse drug reaction associations of marketed drugs” (Nat Commun, 2023).

Tests used:
Adenosine receptor A1 = target: T1, Adenosine receptor A1 (Homo sapiens, UniProt P30542)
T1 sequence (P30542 whole entry): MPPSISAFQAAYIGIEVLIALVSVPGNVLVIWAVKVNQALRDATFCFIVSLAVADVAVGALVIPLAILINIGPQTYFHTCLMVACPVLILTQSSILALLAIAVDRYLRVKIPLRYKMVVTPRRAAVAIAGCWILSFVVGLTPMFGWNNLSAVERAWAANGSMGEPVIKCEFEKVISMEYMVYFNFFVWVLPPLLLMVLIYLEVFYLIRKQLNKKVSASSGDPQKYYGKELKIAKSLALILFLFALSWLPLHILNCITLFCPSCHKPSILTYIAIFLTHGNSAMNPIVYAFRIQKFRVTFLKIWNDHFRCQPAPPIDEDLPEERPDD

[1] = target: T2, Alpha-2B adrenergic receptor (Homo sapiens, UniProt P18089)
T2 sequence (P18089 whole entry): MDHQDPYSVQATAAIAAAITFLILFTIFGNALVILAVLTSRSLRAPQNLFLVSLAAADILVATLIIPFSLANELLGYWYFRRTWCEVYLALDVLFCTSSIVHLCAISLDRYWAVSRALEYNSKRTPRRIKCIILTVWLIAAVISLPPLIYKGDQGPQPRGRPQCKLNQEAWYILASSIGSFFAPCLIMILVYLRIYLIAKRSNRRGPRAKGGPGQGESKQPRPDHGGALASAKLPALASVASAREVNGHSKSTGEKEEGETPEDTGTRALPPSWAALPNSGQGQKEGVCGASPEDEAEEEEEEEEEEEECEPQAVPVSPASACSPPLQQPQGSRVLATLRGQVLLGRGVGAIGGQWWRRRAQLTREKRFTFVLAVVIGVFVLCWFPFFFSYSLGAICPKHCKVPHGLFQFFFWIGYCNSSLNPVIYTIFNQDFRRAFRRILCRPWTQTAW

Vasopressin V1a receptor = Vasopressin V1a receptor (Homo sapiens, UniProt P37288)
Sequence of Vasopressin V1a receptor (P37288 whole entry): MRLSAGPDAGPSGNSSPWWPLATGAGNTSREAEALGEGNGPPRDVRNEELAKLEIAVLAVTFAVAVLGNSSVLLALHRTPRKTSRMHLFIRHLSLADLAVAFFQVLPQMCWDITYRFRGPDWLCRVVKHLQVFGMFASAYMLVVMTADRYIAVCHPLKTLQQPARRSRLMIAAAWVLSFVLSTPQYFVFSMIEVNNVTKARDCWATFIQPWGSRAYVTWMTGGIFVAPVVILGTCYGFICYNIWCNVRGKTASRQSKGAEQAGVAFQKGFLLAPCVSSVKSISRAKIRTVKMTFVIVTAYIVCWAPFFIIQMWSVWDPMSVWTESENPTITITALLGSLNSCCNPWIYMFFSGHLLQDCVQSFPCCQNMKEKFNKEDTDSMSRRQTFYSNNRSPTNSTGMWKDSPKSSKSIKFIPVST

Vasopressin V2 receptor = Vasopressin V2 receptor (Homo sapiens, UniProt P30518)
Sequence of Vasopressin V2 receptor (P30518 whole entry): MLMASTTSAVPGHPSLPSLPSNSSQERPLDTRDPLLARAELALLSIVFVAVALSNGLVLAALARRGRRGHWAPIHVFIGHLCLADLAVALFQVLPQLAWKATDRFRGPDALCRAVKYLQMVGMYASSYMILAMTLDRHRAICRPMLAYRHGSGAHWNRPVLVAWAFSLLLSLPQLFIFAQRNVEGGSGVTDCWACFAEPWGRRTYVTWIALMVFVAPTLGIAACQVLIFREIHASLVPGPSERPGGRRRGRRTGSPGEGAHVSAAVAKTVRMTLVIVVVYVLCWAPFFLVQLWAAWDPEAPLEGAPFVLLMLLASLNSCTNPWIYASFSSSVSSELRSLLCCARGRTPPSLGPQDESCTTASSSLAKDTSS

[2] = target: T3, Muscarinic acetylcholine receptor M2 (Homo sapiens, UniProt P08172); assay type: functional, cell-based
T3 sequence (P08172 whole entry): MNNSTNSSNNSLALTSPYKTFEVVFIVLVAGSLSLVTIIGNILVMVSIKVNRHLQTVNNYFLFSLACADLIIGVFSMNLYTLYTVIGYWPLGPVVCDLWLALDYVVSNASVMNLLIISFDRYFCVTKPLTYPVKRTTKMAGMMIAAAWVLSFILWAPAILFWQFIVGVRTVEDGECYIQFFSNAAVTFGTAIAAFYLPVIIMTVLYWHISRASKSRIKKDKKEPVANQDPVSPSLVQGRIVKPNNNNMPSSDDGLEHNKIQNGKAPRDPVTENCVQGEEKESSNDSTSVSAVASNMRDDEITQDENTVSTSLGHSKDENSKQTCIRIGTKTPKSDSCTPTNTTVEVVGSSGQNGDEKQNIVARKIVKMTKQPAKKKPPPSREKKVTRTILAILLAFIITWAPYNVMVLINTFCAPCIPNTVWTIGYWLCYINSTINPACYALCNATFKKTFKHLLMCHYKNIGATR

Histamine H2 receptor = Histamine H2 receptor (Homo sapiens, UniProt P25021); assay type: functional, cell-based
Sequence of Histamine H2 receptor (P25021 whole entry): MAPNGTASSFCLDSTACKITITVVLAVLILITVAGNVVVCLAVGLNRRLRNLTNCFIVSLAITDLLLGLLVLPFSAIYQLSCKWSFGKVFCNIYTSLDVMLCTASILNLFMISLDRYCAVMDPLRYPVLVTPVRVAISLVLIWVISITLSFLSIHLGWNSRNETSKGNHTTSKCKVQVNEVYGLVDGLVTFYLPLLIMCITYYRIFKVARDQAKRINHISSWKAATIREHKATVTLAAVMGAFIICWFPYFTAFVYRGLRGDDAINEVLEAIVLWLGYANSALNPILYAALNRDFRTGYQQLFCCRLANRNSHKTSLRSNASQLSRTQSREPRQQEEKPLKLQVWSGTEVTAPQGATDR

[3] = target: 5-hydroxytryptamine receptor 2B (Homo sapiens, UniProt P41595); assay type: functional, cell-based
Sequence of 5-hydroxytryptamine receptor 2B (P41595 whole entry): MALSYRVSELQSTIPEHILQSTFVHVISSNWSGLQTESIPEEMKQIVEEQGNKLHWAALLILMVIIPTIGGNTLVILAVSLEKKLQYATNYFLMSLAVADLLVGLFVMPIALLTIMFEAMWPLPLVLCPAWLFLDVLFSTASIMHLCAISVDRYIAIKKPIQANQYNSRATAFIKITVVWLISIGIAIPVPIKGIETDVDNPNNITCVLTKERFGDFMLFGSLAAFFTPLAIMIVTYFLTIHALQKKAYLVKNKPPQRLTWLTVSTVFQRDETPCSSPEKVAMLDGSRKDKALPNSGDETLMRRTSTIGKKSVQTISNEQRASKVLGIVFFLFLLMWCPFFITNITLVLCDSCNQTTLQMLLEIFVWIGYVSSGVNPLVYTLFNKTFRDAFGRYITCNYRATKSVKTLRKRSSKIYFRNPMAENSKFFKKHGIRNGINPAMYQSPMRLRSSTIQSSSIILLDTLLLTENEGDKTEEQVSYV

Melanocortin receptor 3 = Melanocortin receptor 3 (Homo sapiens, UniProt P41968)
Sequence of Melanocortin receptor 3 (P41968 whole entry): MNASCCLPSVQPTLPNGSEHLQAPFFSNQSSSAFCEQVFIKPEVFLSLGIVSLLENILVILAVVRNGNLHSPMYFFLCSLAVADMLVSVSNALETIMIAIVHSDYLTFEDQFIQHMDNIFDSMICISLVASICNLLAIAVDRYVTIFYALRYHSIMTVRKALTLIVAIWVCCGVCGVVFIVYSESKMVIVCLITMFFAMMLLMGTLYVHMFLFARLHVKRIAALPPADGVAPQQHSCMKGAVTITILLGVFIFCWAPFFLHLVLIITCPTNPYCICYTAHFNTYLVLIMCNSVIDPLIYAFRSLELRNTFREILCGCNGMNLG

Motilin receptor = Motilin receptor (Homo sapiens, UniProt O43193)
Sequence of Motilin receptor (O43193 whole entry): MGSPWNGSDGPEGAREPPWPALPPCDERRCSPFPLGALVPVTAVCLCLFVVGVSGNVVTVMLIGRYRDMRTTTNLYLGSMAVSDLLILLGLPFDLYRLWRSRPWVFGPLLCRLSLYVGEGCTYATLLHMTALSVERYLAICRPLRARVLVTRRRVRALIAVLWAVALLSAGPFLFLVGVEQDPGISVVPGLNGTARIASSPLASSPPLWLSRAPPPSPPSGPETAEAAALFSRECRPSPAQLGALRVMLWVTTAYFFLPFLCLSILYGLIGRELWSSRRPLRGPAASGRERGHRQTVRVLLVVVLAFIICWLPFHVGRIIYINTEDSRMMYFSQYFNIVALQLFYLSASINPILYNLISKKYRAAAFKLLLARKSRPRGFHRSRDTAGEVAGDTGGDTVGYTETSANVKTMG

[4] = target: 3',5'-cyclic-AMP phosphodiesterase 4D (Homo sapiens, UniProt Q08499); assay type: functional
Sequence of 3',5'-cyclic-AMP phosphodiesterase 4D (Q08499 whole entry): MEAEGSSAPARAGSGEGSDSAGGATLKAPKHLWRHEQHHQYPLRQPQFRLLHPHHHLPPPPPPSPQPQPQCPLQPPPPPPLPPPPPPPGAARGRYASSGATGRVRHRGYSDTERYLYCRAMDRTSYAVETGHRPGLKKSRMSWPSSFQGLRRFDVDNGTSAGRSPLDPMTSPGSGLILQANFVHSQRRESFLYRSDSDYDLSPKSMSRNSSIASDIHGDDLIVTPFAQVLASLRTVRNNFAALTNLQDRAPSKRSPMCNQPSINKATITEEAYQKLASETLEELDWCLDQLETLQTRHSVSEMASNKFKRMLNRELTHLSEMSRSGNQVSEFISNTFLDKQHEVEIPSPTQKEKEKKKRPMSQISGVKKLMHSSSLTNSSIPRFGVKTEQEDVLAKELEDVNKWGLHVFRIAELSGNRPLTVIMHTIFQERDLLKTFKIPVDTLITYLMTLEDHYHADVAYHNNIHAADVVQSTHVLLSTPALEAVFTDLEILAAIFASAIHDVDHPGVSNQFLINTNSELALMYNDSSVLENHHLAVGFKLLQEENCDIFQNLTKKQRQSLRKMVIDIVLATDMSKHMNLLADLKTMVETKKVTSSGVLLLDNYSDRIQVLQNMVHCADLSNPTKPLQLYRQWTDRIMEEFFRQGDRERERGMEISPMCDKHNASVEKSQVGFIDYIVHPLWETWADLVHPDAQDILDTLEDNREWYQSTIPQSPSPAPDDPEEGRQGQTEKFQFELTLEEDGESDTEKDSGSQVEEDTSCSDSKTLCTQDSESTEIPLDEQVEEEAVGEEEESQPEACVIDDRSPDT

D(3) dopamine receptor = D(3) dopamine receptor (Homo sapiens, UniProt P35462)
Sequence of D(3) dopamine receptor (P35462 whole entry): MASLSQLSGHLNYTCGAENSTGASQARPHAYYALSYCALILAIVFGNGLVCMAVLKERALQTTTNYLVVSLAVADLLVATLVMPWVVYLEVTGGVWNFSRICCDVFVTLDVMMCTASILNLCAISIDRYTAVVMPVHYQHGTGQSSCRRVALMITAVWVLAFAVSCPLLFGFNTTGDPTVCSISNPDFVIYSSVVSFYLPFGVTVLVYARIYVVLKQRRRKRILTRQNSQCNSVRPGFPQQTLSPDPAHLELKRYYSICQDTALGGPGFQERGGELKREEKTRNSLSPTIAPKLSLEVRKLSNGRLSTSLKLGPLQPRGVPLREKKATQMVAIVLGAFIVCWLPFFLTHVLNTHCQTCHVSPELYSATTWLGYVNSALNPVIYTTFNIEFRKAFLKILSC

[5] = target: T4, Alpha-1A adrenergic receptor (Homo sapiens, UniProt P35348); assay type: functional, cell-based
T4 sequence (P35348 whole entry): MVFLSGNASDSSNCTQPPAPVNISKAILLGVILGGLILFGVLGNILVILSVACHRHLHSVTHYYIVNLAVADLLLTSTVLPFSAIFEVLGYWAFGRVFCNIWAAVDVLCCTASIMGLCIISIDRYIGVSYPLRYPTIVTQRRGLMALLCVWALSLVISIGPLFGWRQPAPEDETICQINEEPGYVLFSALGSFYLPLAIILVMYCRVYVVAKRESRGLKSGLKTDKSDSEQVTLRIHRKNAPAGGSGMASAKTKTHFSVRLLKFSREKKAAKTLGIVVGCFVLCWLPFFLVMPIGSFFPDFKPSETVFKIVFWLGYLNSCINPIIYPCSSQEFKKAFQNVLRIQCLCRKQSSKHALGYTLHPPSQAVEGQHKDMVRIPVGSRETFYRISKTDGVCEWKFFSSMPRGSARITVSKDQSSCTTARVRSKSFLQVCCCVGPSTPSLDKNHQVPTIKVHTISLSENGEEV

[6] = target: Beta-2 adrenergic receptor (Homo sapiens, UniProt P07550)
Sequence of Beta-2 adrenergic receptor (P07550 whole entry): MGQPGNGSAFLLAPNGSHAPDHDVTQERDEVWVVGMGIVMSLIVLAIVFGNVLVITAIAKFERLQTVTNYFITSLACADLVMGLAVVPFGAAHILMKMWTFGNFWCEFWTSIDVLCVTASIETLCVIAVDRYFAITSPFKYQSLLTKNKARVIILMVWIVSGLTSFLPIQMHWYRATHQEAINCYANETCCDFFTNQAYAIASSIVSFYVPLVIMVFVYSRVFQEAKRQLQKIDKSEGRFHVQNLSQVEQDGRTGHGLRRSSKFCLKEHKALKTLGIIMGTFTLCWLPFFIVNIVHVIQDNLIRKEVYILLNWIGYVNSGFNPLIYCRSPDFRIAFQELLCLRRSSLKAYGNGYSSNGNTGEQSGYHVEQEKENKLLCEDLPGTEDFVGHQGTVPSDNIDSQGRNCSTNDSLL

Thromboxane A2 receptor = target: T5, Thromboxane A2 receptor (Homo sapiens, UniProt P21731)
T5 sequence (P21731 whole entry): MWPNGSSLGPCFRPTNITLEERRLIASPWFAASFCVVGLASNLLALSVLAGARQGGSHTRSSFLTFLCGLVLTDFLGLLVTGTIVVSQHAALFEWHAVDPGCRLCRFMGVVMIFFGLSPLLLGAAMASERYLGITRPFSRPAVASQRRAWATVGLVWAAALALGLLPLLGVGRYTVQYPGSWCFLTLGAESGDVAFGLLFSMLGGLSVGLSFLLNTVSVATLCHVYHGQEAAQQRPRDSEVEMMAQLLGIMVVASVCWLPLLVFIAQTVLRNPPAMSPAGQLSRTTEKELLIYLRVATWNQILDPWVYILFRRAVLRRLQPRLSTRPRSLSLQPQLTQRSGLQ
Note: assay procedure not described here.

With CC[C@@H](C(N)=O)N1CCCC1=O as the molecule, how does the AC50 (Adenosine receptor A1) read?
Its AC50 is over 30 µM.

And the AC50 [1]?
Its AC50 is over 30 µM.

What about the AC50 (Vasopressin V1a receptor) of the same molecule?
The AC50 was over 30 µM.

What about the AC50 (Vasopressin V2 receptor) of the same molecule?
The AC50 was over 30 µM.

What about the AC50 [2] of the same molecule?
Its AC50 is over 30 µM.

What about the AC50 (Histamine H2 receptor) of the same molecule?
The AC50 was over 30 µM.

And the AC50 [3]?
Its AC50 is over 30 µM.

And the AC50 (Melanocortin receptor 3)?
The AC50 was over 30 µM.

What about the AC50 (Motilin receptor) of the same molecule?
Its AC50 is over 30 µM.

What about the AC50 [4] of the same molecule?
The AC50 was over 30 µM.

And the AC50 (D(3) dopamine receptor)?
The AC50 was over 30 µM.

And the AC50 [5]?
Its AC50 is over 30 µM.

Which results are given for CCC(CC)(CC(=O)Nc1cccc(/C=C/c2nc(C3CCC3)cs2)c1)C(=O)O?
AC50 (Adenosine receptor A1): > 30 µM; AC50 (Vasopressin V1a receptor): > 30 µM; AC50 (Vasopressin V2 receptor): > 30 µM; AC50 (Melanocortin receptor 3): > 30 µM; AC50 (Motilin receptor): > 30 µM

With CC(=O)c1ccc2c(c1)N(CCCN(C)C)c1ccccc1S2 [ACEPROMAZINE] as the molecule, how does the AC50 (D(3) dopamine receptor) read?
Its AC50 is 0.013 µM.

With CCCC1O[C@@H]2C[C@H]3[C@@H]4CCC5=CC(=O)C=C[C@]5(C)[C@H]4[C@@H](O)C[C@]3(C)[C@]2(C(=O)CO)O1 (stereo partly specified) [BUDESONIDE] as the molecule, how does the AC50 (Adenosine receptor A1) read?
The AC50 was over 10 µM.

And the AC50 [6]?
The AC50 was over 10 µM.

And the AC50 (Vasopressin V1a receptor)?
Its AC50 is over 10 µM.

And the AC50 (Vasopressin V2 receptor)?
The AC50 was over 10 µM.

And the AC50 [2]?
The AC50 was over 10 µM.

And the AC50 (Histamine H2 receptor)?
The AC50 was over 10 µM.

What about the AC50 [3] of the same molecule?
The AC50 was over 10 µM.

What about the AC50 (Melanocortin receptor 3) of the same molecule?
The AC50 was over 10 µM.

And the AC50 (Motilin receptor)?
The AC50 was over 10 µM.

And the AC50 [4]?
The AC50 was over 30 µM.

And the AC50 (Thromboxane A2 receptor)?
The AC50 was over 10 µM.

And the AC50 (D(3) dopamine receptor)?
Its AC50 is over 30 µM.

C=CCN1C[C@H](C(=O)N(CCCN(C)C)C(=O)NCC)C[C@@H]2c3cccc4[nH]cc(c34)C[C@H]21 [CABERGOLINE] was tested. Which AC50 (Adenosine receptor A1) did it give?
Its AC50 is over 10 µM.

And the AC50 [6]?
Its AC50 is over 10 µM.

And the AC50 (Vasopressin V1a receptor)?
The AC50 was over 10 µM.

And the AC50 (Vasopressin V2 receptor)?
The AC50 was over 10 µM.

And the AC50 [2]?
The AC50 was over 30 µM.

What about the AC50 (Histamine H2 receptor) of the same molecule?
The AC50 was 4.23 µM.

What about the AC50 [3] of the same molecule?
The AC50 was 0.189 µM.

And the AC50 (Melanocortin receptor 3)?
The AC50 was over 10 µM.

What about the AC50 (Motilin receptor) of the same molecule?
Its AC50 is over 10 µM.

And the AC50 [4]?
The AC50 was over 30 µM.

What about the AC50 (Thromboxane A2 receptor) of the same molecule?
The AC50 was over 10 µM.

What about the AC50 (D(3) dopamine receptor) of the same molecule?
Its AC50 is 0.0076 µM.

Which results are given for CN1CCN(C2=Nc3ccccc3Sc3ccc(Cl)cc32)CC1 [CLOTHIAPINE]?
AC50 [1]: 1.3 µM; AC50 [2]: 6.7 µM; AC50 (Histamine H2 receptor): > 30 µM; AC50 [3]: > 30 µM; AC50 [4]: > 30 µM; AC50 (D(3) dopamine receptor): 0.35 µM; AC50 [5]: 1.2 µM

With CN(C)CCC=C1c2ccccc2C=Cc2ccccc21 [CYCLOBENZAPRINE] as the molecule, how does the AC50 (Adenosine receptor A1) read?
The AC50 was over 30 µM.

What about the AC50 [1] of the same molecule?
Its AC50 is over 10 µM.

What about the AC50 [6] of the same molecule?
The AC50 was over 10 µM.

What about the AC50 (Vasopressin V1a receptor) of the same molecule?
Its AC50 is over 30 µM.

What about the AC50 (Vasopressin V2 receptor) of the same molecule?
The AC50 was over 30 µM.

And the AC50 (Histamine H2 receptor)?
The AC50 was over 10 µM.

And the AC50 [3]?
The AC50 was over 10 µM.

And the AC50 (Melanocortin receptor 3)?
Its AC50 is over 30 µM.

What about the AC50 (Motilin receptor) of the same molecule?
The AC50 was over 10 µM.

And the AC50 [4]?
The AC50 was over 30 µM.

And the AC50 (Thromboxane A2 receptor)?
Its AC50 is over 30 µM.

And the AC50 (D(3) dopamine receptor)?
Its AC50 is 1.1 µM.

What about the AC50 [5] of the same molecule?
Its AC50 is 0.47 µM.

What does the source list for CCOc1ccc(Cc2cc([C@@H]3O[C@H](CO)[C@@H](O)[C@H](O)[C@H]3O)ccc2Cl)cc1 [DAPAGLIFLOZIN]?
AC50 (Adenosine receptor A1): > 30 µM; AC50 [1]: > 10 µM; AC50 [6]: > 10 µM; AC50 (Vasopressin V1a receptor): > 30 µM; AC50 (Vasopressin V2 receptor): > 30 µM; AC50 (Melanocortin receptor 3): > 30 µM; AC50 (Motilin receptor): > 10 µM; AC50 [4]: > 30 µM; AC50 (Thromboxane A2 receptor): > 30 µM; AC50 (D(3) dopamine receptor): > 30 µM

How did the AC50 (Adenosine receptor A1) turn out when CN(C)CC/C=C1\c2ccccc2CSc2ccccc21 [DOTHIEPIN] was run?
Its AC50 is over 30 µM.

What about the AC50 [1] of the same molecule?
The AC50 was 1.3 µM.

What about the AC50 [6] of the same molecule?
Its AC50 is over 30 µM.

And the AC50 (Vasopressin V1a receptor)?
The AC50 was over 30 µM.

What about the AC50 (Vasopressin V2 receptor) of the same molecule?
Its AC50 is over 30 µM.

And the AC50 [2]?
The AC50 was 1.4 µM.

And the AC50 (Histamine H2 receptor)?
Its AC50 is over 30 µM.

And the AC50 [3]?
The AC50 was over 30 µM.

What about the AC50 (Melanocortin receptor 3) of the same molecule?
The AC50 was 25 µM.

What about the AC50 (Motilin receptor) of the same molecule?
Its AC50 is over 30 µM.

What about the AC50 [4] of the same molecule?
Its AC50 is over 30 µM.

And the AC50 (Thromboxane A2 receptor)?
Its AC50 is over 30 µM.

What about the AC50 (D(3) dopamine receptor) of the same molecule?
The AC50 was 3 µM.

What about the AC50 [5] of the same molecule?
The AC50 was 0.87 µM.
